Laboratory results reported in the NIST ThermoML archive (doi:10.1021/je901043q).
Numbers after ± are expanded uncertainties.

Key:
[1] = xn = mol fraction of the nth substance listed; conditions: 101 kPa, Liquid, x2 = 0
[2] = 101 kPa, Liquid

SMILES | mass density ([1]; 298.15 K) [kg/m3] | viscosity ([1]; 298.15 K) [mPa·s] | mass density ([1]; 308.15 K) [kg/m3] | viscosity ([1]; 308.15 K) [mPa·s] | mass density ([1]; 318.15 K) [kg/m3] | viscosity ([1]; 318.15 K) [mPa·s] | mass density ([1]; 328.15 K) [kg/m3] | viscosity ([1]; 328.15 K) [mPa·s] | mass density ([1]; 338.15 K) [kg/m3] | viscosity ([1]; 338.15 K) [mPa·s] | mass density ([1]; 348.15 K) [kg/m3] | viscosity ([1]; 348.15 K) [mPa·s] | mass density ([2]; 298.15 K) [kg/m3] | viscosity ([2]; 298.15 K) [mPa·s] | mass density ([2]; 308.15 K) [kg/m3] | viscosity ([2]; 308.15 K) [mPa·s] | mass density ([2]; 318.15 K) [kg/m3] | viscosity ([2]; 318.15 K) [mPa·s] | mass density ([2]; 328.15 K) [kg/m3] | viscosity ([2]; 328.15 K) [mPa·s] | other results
CCCCCCCO [heptan-1-ol] + CCCCn1cc[n+](C)c1.N#C[S-] | 818.81 ± 0.28 | 5.851 ± 0.18 | 811.73 ± 0.28 | 4.26 ± 0.14 | 804.55 ± 0.28 | 3.184 ± 0.11 | 797.22 ± 0.29 | 2.434 ± 0.091 | 789.75 ± 0.29 | 1.9 ± 0.078 | 782.08 ± 0.3 | 1.512 ± 0.068 | – | – | – | – | – | – | – | – | –
CCCCCCCCCCO [decan-1-ol] + CCCCn1cc[n+](C)c1.N#C[S-] | 826.38 ± 0.27 | 11.09 ± 0.31 | 819.53 ± 0.28 | 7.632 ± 0.22 | 812.62 ± 0.28 | 5.375 ± 0.16 | 805.61 ± 0.28 | 3.928 ± 0.13 | 798.48 ± 0.29 | 2.964 ± 0.11 | 791.21 ± 0.29 | 2.399 ± 0.09 | – | – | – | – | – | – | – | – | –
CCCCCCCCCO [nonan-1-ol] | – | – | – | – | – | – | – | – | – | – | – | – | 824.27 ± 0.27 | 9.343 ± 0.26 | 817.36 ± 0.28 | 6.497 ± 0.19 | 810.4 ± 0.28 | 4.674 ± 0.15 | 803.29 ± 0.28 | 3.452 ± 0.12 | mass density ([2]; 338.15 K): 796.1 ± 0.29 kg/m3; viscosity ([2]; 338.15 K): 2.664 ± 0.097 mPa·s; mass density ([2]; 348.15 K): 788.72 ± 0.29 kg/m3; viscosity ([2]; 348.15 K): 2.256 ± 0.087 mPa·s
CCCCCCCCO [octan-1-ol] + CCCCn1cc[n+](C)c1.N#C[S-] | 821.61 ± 0.28 | 7.398 ± 0.21 | 814.64 ± 0.28 | 5.285 ± 0.16 | 807.57 ± 0.28 | 3.887 ± 0.13 | 800.39 ± 0.29 | 2.931 ± 0.1 | 793.09 ± 0.29 | 2.262 ± 0.087 | 785.59 ± 0.29 | 1.782 ± 0.075 | – | – | – | – | – | – | – | – | –
CCCCCCCCO [octan-1-ol] | – | – | – | – | – | – | – | – | – | – | – | – | 821.61 ± 0.28 | 7.398 ± 0.21 | 814.64 ± 0.28 | 5.285 ± 0.16 | 807.57 ± 0.28 | 3.887 ± 0.13 | 800.39 ± 0.29 | 2.931 ± 0.1 | mass density ([2]; 338.15 K): 793.09 ± 0.29 kg/m3; viscosity ([2]; 338.15 K): 2.262 ± 0.087 mPa·s; mass density ([2]; 348.15 K): 785.59 ± 0.29 kg/m3; viscosity ([2]; 348.15 K): 1.782 ± 0.075 mPa·s

More lines, main results first:

mass density ([1]; 298.15 K) [kg/m3] | viscosity ([1]; 298.15 K) [mPa·s] | mass density ([1]; 308.15 K) [kg/m3] | viscosity ([1]; 308.15 K) [mPa·s] | mass density ([1]; 318.15 K) [kg/m3] | viscosity ([1]; 318.15 K) [mPa·s] | mass density ([1]; 328.15 K) [kg/m3] | viscosity ([1]; 328.15 K) [mPa·s] | mass density ([1]; 338.15 K) [kg/m3] | viscosity ([1]; 338.15 K) [mPa·s] | mass density ([1]; 348.15 K) [kg/m3] | viscosity ([1]; 348.15 K) [mPa·s] | mass density ([2]; 298.15 K) [kg/m3] | viscosity ([2]; 298.15 K) [mPa·s] | mass density ([2]; 308.15 K) [kg/m3] | viscosity ([2]; 308.15 K) [mPa·s] | mass density ([2]; 318.15 K) [kg/m3] | viscosity ([2]; 318.15 K) [mPa·s] | mass density ([2]; 328.15 K) [kg/m3] | viscosity ([2]; 328.15 K) [mPa·s] | SMILES | other results
– | – | – | – | – | – | – | – | – | – | – | – | 818.81 ± 0.28 | 5.851 ± 0.18 | 811.73 ± 0.28 | 4.26 ± 0.14 | 804.55 ± 0.28 | 3.184 ± 0.11 | 797.22 ± 0.29 | 2.434 ± 0.091 | CCCCCCCO [heptan-1-ol] | mass density ([2]; 338.15 K): 789.75 ± 0.29 kg/m3; viscosity ([2]; 338.15 K): 1.9 ± 0.078 mPa·s; mass density ([2]; 348.15 K): 782.08 ± 0.3 kg/m3; viscosity ([2]; 348.15 K): 1.512 ± 0.068 mPa·s
824.27 ± 0.27 | 9.343 ± 0.26 | 817.36 ± 0.28 | 6.497 ± 0.19 | 810.4 ± 0.28 | 4.674 ± 0.15 | 803.29 ± 0.28 | 3.452 ± 0.12 | 796.1 ± 0.29 | 2.664 ± 0.097 | 788.72 ± 0.29 | 2.256 ± 0.087 | – | – | – | – | – | – | – | – | CCCCCCCCCO [nonan-1-ol] + CCCCn1cc[n+](C)c1.N#C[S-] | –
– | – | – | – | – | – | – | – | – | – | – | – | 826.38 ± 0.27 | 11.09 ± 0.31 | 819.53 ± 0.28 | 7.632 ± 0.22 | 812.62 ± 0.28 | 5.375 ± 0.16 | 805.61 ± 0.28 | 3.928 ± 0.13 | CCCCCCCCCCO [decan-1-ol] | mass density ([2]; 338.15 K): 798.48 ± 0.29 kg/m3; viscosity ([2]; 338.15 K): 2.964 ± 0.11 mPa·s; mass density ([2]; 348.15 K): 791.21 ± 0.29 kg/m3; viscosity ([2]; 348.15 K): 2.399 ± 0.09 mPa·s
